Measurements published in patent US20250281676A1 (priority 2020, published 2025).

Columns and labels:
[1] = test system: carcinomas; settings: delivered with pH sensitive hydrogels; cited from earlier work
[2] = Net charge and isoelectric point of peptide; assay type: physicochemical; settings: pH 7
Source text: The peptide may be purified. For example, the peptide may be lyophilized. […] Other peptides are within the scope of the disclosure.
Exemplary peptides having a charge of +5 to +9 include […](d)[…], […] (d)[…], and […] (d)[…]. In other embodiments, the purified peptide may be substantially neutral. […] Net charge may be selected by peptide design. Design of electrostatic charge in the peptide hydrogel may allow control of charge interaction with cell membrane and proteins.

[3] = test system: tumor; settings: delivered by thermosensitive, biodegradable hydrogels; gradual release, local delivery to tumor site; cited from earlier work

Molecule: CN(C)C(=N)N=C(N)N [metformin]
- tumor size compared to systemic delivery [1]: significant decrease in tumor size

Molecule: O=c1[nH]cc(F)c(=O)[nH]1 [5-fluorouracil]
- tumor size compared to systemic delivery [1]: significant decrease in tumor size

Molecule: VEVSVSVEVdPPTEVSVEVEV-NH2
- net charge [2]: net negative charge

Molecule: COc1cccc2c1C(=O)c1c(O)c3c(c(O)c1C2=O)C[C@@](O)(C(=O)CO)C[C@@H]3O[C@H]1C[C@H](N)[C@H](O)[C@H](C)O1 [DOX, Doxorubicin]
- treatment outcomes compared to systemic treatment modalities [3]: improved treatment outcomes
